The target in test [1] is T1, Met kinase (Homo sapiens, UniProt P08581).
T1 construct: 6His (N); purchased Upstate 14-526; host or cells: insect cells (Sf21; S. frugiperda), baculovirus
The experiment in a line: Met kinase inhibition (enzyme assay), flashplate method. The format is biochemical. The protocol: Flashplate Method (Met Kinase)
The test plates used are 96-well Flashplate® microtitre plates from Perkin Elmer (Cat. No. SMP200). The components of the kinase reaction described below are pipetted into the assay plate. The Met kinase and the substrate poly Ala-Glu-Lys-Tyr, (PAGLT, 6:2:5:1), are incubated for 3 hrs at room temperature with radioactively labelled ^33P-ATP in the presence and absence of test substances in a total volume of 100 μl. The reaction is terminated using 150 μl of a 60 mM EDTA solution. After incubation for a further 30 min at room temperature, the supernatants are filtered off with suction, and the wells are washed three times with 200 μl of 0.9% NaCl solution each time. The measurement of the bound radioactivity is carried out by means of a scintillation measuring instrument (Topcount NXT, Perkin-Elmer).
The full value used is the inhibitor-free kinase reaction. This should be approximately in the range 6000-9000 cpm. The pharmacological zero value used is staurosporin in a final concentration of 0.1 mM. The inhibitory values (IC50) are determined using the RS1_MTS program.
Kinase reaction conditions per well: • 30 μl of assay buffer • 10 μl of substance to be tested in assay buffer with 10% of DMSO • 10 μl of ATP (final concentration 1 μM cold, 0.35 μCi of ^33P-ATP) • 50 μl of Met kinase/substrate mixture in assay buffer; (10 ng of enzyme/well, 50 ng of pAGLT/well)
Assay Buffer: • 50 mM HEPES • 3 mM magnesium chloride • 3 μM sodium orthovanadate • 3 mM manganese(II) chloride • 1 mM dithiothreitol (DTT) • pH=7.5 (to be set using sodium hydroxide)

Test [2] deals with TPR-Met/NIH3T3 cells. Briefly: In-vivo test: subcutaneous TPR-Met/NIH3T3 tumour in Balb/C mice, tumour volume. The settings on record: female Balb/C mice, 200 mg/kg daily by gastric tube, 9 days. The protocol: Experimental procedure: Female Balb/C mice (breeder: Charles River Wiga) were 5 weeks old on arrival. They were acclimatised to our keeping conditions for 7 days. Each mouse was subsequently injected subcutaneously in the pelvic area with 4 million TPR-Met/NIH3T3 cells in 100 μl of PBS (without Ca++ and Mg++).
Measurement of the tumour volume: The length (L) and breadth (B) were measured using a Vernier calliper, and the tumour volume was calculated from the formula L×B×B/2.
Keeping conditions: 4 or 5 animals per cage, feeding with commercial mouse food (Sniff).

The term IC50 denotes the concentration needed to halve the response being measured. Higher therefore signals weaker potency in that assay.

T1 sequence (P08581 974-1390 limits assumed): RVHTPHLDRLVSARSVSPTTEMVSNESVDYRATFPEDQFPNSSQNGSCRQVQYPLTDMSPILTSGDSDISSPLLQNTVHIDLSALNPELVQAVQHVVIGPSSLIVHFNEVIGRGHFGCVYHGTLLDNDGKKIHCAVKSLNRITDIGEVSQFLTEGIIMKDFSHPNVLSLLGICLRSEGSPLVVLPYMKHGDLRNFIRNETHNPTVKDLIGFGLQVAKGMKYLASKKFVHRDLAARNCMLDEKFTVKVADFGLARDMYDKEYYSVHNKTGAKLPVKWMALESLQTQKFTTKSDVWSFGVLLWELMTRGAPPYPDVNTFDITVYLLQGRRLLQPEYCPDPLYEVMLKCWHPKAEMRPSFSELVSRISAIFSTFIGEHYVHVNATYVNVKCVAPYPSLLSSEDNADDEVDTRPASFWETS

In test [1], `CN1CCN(CCCOC(=O)Nc2cccc(Cn3nc(-c4cc(F)cc(F)c4)ccc3=O)c2)CC1` [A91, 3-(4-Methylpiperazin-1-yl)propyl {3-[3-(3,5-difluorophenyl)-6-oxo-6H-pyridazin-1-ylmethyl]phenyl}carbamate] yielded an IC50 of 0.01 to 1 µM. Further, the “antitumoural action (tumour volume)” value in test [2] is “significant antitumoural action”.

(Values after patent US8173653B2, “Pyridiazinone derivatives for the treatment of tumours” (Merck Patent Gesellschaft MIT Beschraenkter Haftung, priority 2005, dated 2012).)
